Results published in a melting point compilation (Tetko et al.; mined from patent text by program, amines drawn as free bases though some values may be those of a salt).

| SMILES | melting point |
| --- | --- |
| CCC(C(=O)N(CC)CC)n1ccc(-c2ccccc2)n1 (centres undefined) | 63 to 66 °C |
| NC(=O)C(c1ccc([N+](=O)[O-])cc1)c1ccccn1 (racemic) | 155 to 156 °C |
| CC(C)(C)Sc1c(CC(C)(C)C(=O)O)n(Cc2ccc(Cl)cc2)c2ccc(OCc3cnccn3)cc12 | 173 to 175 °C |
| COC(=O)c1cc(Cl)c(N)c2c1OCC2 | 135 °C |
| CS(=O)(=O)Nc1ccc(C(=O)N[C@@H](Cc2ccc(-c3ccccc3C(F)(F)F)cc2)C(=O)O)c(Cl)c1 | 114 °C |
| Cc1cccc(-c2n[nH]cc2-c2ccc(F)c(-c3c[nH]c(CC(C)(C)O)n3)c2)n1 | 136 to 140 °C |
| O=C(O)Cc1cccc2ccoc12 | 115 to 118 °C |
| C#CCNC(=O)c1ncn2c1[C@@H]1CCN1C(=O)c1sccc1-2 | 233 to 235 °C |
| COc1cc2c(O)c(S(=O)(=O)N(C)C)cnc2cc1Cl | 316 to 318 °C |
| CCOC(C)n1c(C(=O)C(F)(F)F)nc(-c2ccc(OC)cc2)c1-c1ccc(OC)cc1 (centres undefined) | 124 to 126 °C |
| O=c1c2cc(F)c(N3CCCC3)nc2n(C2CC2)c(=O)n1OCc1ccccc1 | 184 to 186 °C |
| CCCOc1ccc(C2=NN(C(=O)Nc3ccc(C(F)(F)F)cc3)CC2(C)C(=O)OC)cc1 (centres undefined) | 134 to 137 °C |
| COc1ccc(-c2ccc(C(=O)N3Cc4cccn4Cc4ccccc43)cc2)cc1 | 187 to 189 °C |
| COC(=O)c1cc(OC)c(Br)cc1Cl | 78 to 79 °C |
| COc1ccc(C(=O)Nc2ccccc2Nc2ccccc2)cc1 | 148 to 150 °C |
| CCc1cc2c(=O)[nH]c(CO)nc2s1 | 202 °C |
| CCN(c1nc(C)cc(C)n1)c1ccc(N(C)C(C)=O)cc1SC | 158 to 160 °C |
| CCCCn1c(=O)c2[nH]ncc2n(CCC(C)C)c1=O | 77 to 79 °C |
| COc1cc(C=NC2CCCCC2)c([N+](=O)[O-])cc1OC | 160 to 161 °C |
| CCN(CC)CCNc1cc(-c2c(-c3cccc(C)c3)nc3cccnn23)ccn1 | 97 to 98 °C |
| CC(=C[N+](=O)[O-])c1ccccc1O | 110 to 112 °C |
| COC(=O)c1ccnc(-c2cccc3cc(Cc4cccc(C(F)(F)F)c4)sc23)c1 | 106 to 107 °C |
| CCOC(=O)c1cn2c3c(c(Cl)c(F)cc3c1=O)C(=O)CC2C (single isomer, unassigned; (-)) | 252 to 254 °C |
| CS(=O)(=O)NCCCNC(=O)c1cccc(-c2cccc3oc(Cc4cccc(C(F)(F)F)c4)cc23)c1 | 79 to 80 °C |
| Cc1cc(N2CCN(Cc3ccccc3)C2=O)sc1C(=O)NCc1cccnc1 | 130 to 131 °C |

| SMILES | melting point |
| --- | --- |
| NC(=O)c1cc2c3ccccc3n(Cc3ccccc3)c2s1 | 207 °C |
| O=C1N(Cc2nc3ccccc3s2)c2ccccc2C12COc1cc3c(cc12)OCCO3 (centres undefined) | 164 to 166 °C |
| Cn1cc(C(=O)NCc2ccc(Cl)cc2)c(=O)c2sc(CO)c(COCC[Si](C)(C)C)c21 | 193 to 194 °C |
| CCOC(=O)[C@H]1O[C@@H]1C(=O)N[C@H](COCC(=O)N(C)C)CC(C)C | 64 to 65 °C |
| Cc1nc2c3c(c(C(=O)O)cc2n1C)CCC(c1ccccc1)N3 (centres undefined) | 325 to 326 °C |
| CC(C)(C)c1cc(C(=O)C2CC2)cc(C(C)(C)C)c1O | 140 to 142 °C |
| Cc1cc2cc(Cl)ccc2n1Cc1ccccc1 | 75 to 76 °C |
| CCOC(=O)c1c(C(F)(F)F)nc2cc(C(F)(F)F)ccc2c1O | 156 °C |
| CCOC(=O)CCCN(O)C(=O)NCCc1ccc(OC)c(OC)c1 | 75 to 76 °C |
| COc1cc([N+](=O)[O-])ccc1CBr | 94 to 96 °C |
| Cc1ccc(-n2nc(O)c3[nH]c4cc(Cl)cc(Cl)c4c(=O)c3c2=O)c(C)c1 | 335 to 336 °C |
| CC(C)n1c(C(=O)O)c(-c2ccc(F)cc2)c2ccccc2c1=O | 128 to 130 °C |
| CN(C)Cc1ccccc1Sc1ccc([N+](=O)[O-])cc1[N+](=O)[O-] | 128 to 129 °C |
| COC(=O)CCc1cnoc1-c1ccc(Cl)cc1 | 51 to 52 °C |
| CC(C)(C)C(=O)Nc1ccccc1C(c1ccc(O)cc1)c1ccc(O)cc1 | 259 to 262 °C |
| O=C(Nc1cccc(C(F)(F)F)c1)c1cccnc1NCc1cccc(O)c1 | 143 to 146 °C |
| Brc1cccc2c1ccc1ccccc12 | 90 to 91 °C |
| NS(=O)(=O)c1ccc(C(=O)NCCc2ccccc2)cc1 | 243 to 245 °C |
| NCCCC(=O)N1CCC(c2[nH]nc3c2C(=O)c2c(NC(=O)NN4CCOCC4)cccc2-3)CC1 | 172 to 174 °C |
| CC(C)(C)c1cc(-c2nnc(NC(N)=S)s2)cc(C(C)(C)C)c1O | > 80 °C |
| OCCCCc1ccc(OCc2coc(/C=C/c3ccc(F)cc3F)n2)cc1 | 75 to 76 °C |
| CC(c1oc2ccccc2c(=O)c1-c1cccc(F)c1)n1nc(-c2ccc3cc(O)ccc3c2)c2c(N)ncnc21 (centres undefined) | 281 to 285 °C |
| O=C(NCCCN1CCN(c2ccc(F)cc2OCC(F)(F)F)CC1)c1csc2c(=O)cc(-c3ccccc3)oc12 | 189 to 191 °C |
| Cc1nc2ccc(Cl)cc2c(=O)n1CCCn1ccnc1 | 190 to 192 °C |
